Measured values as given in patent publication US20220048895A1, “SUBSTITUTED BENZAZEPINE COMPOUNDS, CONJUGATES, AND USES THEREOF” (SILVERBACK THERAPEUTICS, INC., priority 2018, published 2022).

Test system: Human peripheral blood mononuclear cells (PBMC)
Assay: PBMC screening assay: TNF-α in supernatant by ELISA or HTRF
Type: cell-based
Conditions: TNF-α activity in supernatant of human PBMC, 24 hours incubation, 1000 to 0.000238 nM
Procedure: Materials and general procedures. Human peripheral blood mononuclear cells (PBMC) were obtained from BenTek, frozen at 25×10^6 cell/mL in 10% DMSO (Sigma) prepared in fetal bovine serum (Gibco) and stored in liquid nitrogen. For the culture, PBMC were thawed quickly in a 37° C. water bath and diluted into pre-warmed RPMI 1640 (Lonza) supplemented with 10% fetal bovine serum, 2 mM glutamine, […] (all from Gibco) and centrifuged for 5 minutes at 500×g. PBMC were suspended into the growth media described above and cultured at a concentration of 1×10^6 cells per mL at 37° C. in a 5% CO2 incubator.
General procedure for in vitro small molecule screening. PBMC were thawed, suspended at a concentration of 1×10^6 cell/mL in growth media and 200 μL was aliquoted into each well of a 96-well plate for a total of 0.2×10^6 cells per well. PBMC were incubated for approximately 16-18 hours at 37° C. in a 5% CO2 humidified incubator. PBMC plates were centrifuged at 500×g for 5 minutes and the growth media was removed. 150 μL of twelve concentrations ranging from 1000 to 0.000238 nM of small molecules prepared in growth media were added to PBMC in duplicate and incubated for 24 hours at 37° C. in a 5% CO2 incubator. Prior to supernatant harvest, cells were spun at 500×g for 5 minutes to remove cell debris. TNF-α activity was assessed in the supernatant by ELISA (eBioscience) or HTRF (CisBio) per the manufacturer's instructions. The optical density at 450 nm and 570 nm (ELISA) or […] (HTRF) was analyzed using an Envision (Perkin Elmer) plate reader, as shown in Table 2.

Row | SMILES | EC50 [nM]
1 | CCCN(CCC)C(=O)C1=Cc2ccc(-c3ccc(C(=O)N4CCNC(c5ccccc5)C4)cc3)cc2N=C(N)C1 (centres unmarked) [Compound 1.1, 2-amino-8-(4-(3-phenylpiperazine-1-carbonyl)phenyl)-N,N-dipropyl-3H-benzo[b]azepine-4-carboxamide] | < 50
2 | CCCN(CCC)C(=O)C1=Cc2ccc(-c3ccc(C(=O)N4CCCC4CO)cc3)cc2N=C(N)C1 (centres unmarked) [Compound 1.11, 2-amino-8-(4-(2-(hydroxymethyl)pyrrolidine-1-carbonyl)phenyl)-N,N-dipropyl-3H-benzo[b]azepine-4-carboxamide] | 50 to 500
3 | CCCN(CCC)C(=O)C1=Cc2ccc(-c3ccc(C(=O)N4CCN[C@H](c5ccccc5)C4)cc3)cc2N=C(N)C1 [Compound 1.2, (R)-2-amino-8-(4-(3-phenylpiperazine-1-carbonyl)phenyl)-N,N-dipropyl-3H-benzo[b]azepine-4-carboxamide] | < 50
4 | CCCN(CCC)C(=O)C1=Cc2ccc(-c3ccc(C(=O)N4CCC(O)(c5ccccc5)C4)cc3)cc2N=C(N)C1 (centres unmarked) [Compound 1.9, 2-amino-8-(4-(3-hydroxy-3-phenylpyrrolidine-1-carbonyl)phenyl)-N,N-dipropyl-3H-benzo[b]azepine-4-carboxamide] | 50 to 500
5 | CCCN(CCC)C(=O)C1=Cc2ccc(-c3ccc(C(=O)N4CCc5ccccc5C4)cc3)cc2N=C(N)C1 [Compound 1.8, 2-amino-N,N-dipropyl-8-(4-(1,2,3,4-tetrahydroisoquinoline-2-carbonyl)phenyl)-3H-benzo[b]azepine-4-carboxamide] | > 500
6 | CCCN(CCC)C(=O)C1=Cc2ccc(-c3ccc(C(=O)N4CCC(O)(c5ccccc5)CC4)cc3)cc2N=C(N)C1 [Compound 1.5, 2-amino-8-(4-(4-hydroxy-4-phenylpiperidine-1-carbonyl)phenyl)-N,N-dipropyl-3H-benzo[b]azepine-4-carboxamide] | 50 to 500
7 | CCCN(CCC)C(=O)C1=Cc2ccc(-c3ccc(C(=O)N4CCC(CO)(c5ccccc5)CC4)cc3)cc2N=C(N)C1 [Compound 1.7, 2-amino-8-(4-(4-(hydroxymethyl)-4-phenylpiperidine-1-carbonyl)phenyl)-N,N-dipropyl-3H-benzo[b]azepine-4-carboxamide] | > 500
8 | CCCN(CCC)C(=O)C1=Cc2ccc(-c3ccc(C(=O)N4CCN(c5ccccc5)CC4)cc3)cc2N=C(N)C1 [Compound 1.4, 2-amino-8-(4-(4-phenylpiperazine-1-carbonyl)phenyl)-N,N-dipropyl-3H-benzo[b]azepine-4-carboxamide] | 50 to 500
9 | CCCN(CCC)C(=O)C1=Cc2ccc(-c3ccc(C(=O)N4CCN[C@@H](c5ccccc5)C4)cc3)cc2N=C(N)C1 [Compound 1.3, (S)-2-amino-8-(4-(3-phenylpiperazine-1-carbonyl)phenyl)-N,N-dipropyl-3H-benzo[b]azepine-4-carboxamide] | < 50
10 | CCCN(CCC)C(=O)C1=Cc2ccc(-c3ccc(C(=O)N4CCCC4c4ccccc4)cc3)cc2N=C(N)C1 (centres unmarked) [Compound 1.10, 2-amino-8-(4-(2-phenylpyrrolidine-1-carbonyl)phenyl)-N,N-dipropyl-3H-benzo[b]azepine-4-carboxamide] | 50 to 500
11 | CCCN(CCC)C(=O)C1=Cc2ccc(-c3ccc(C(=O)N4CCCC(CO)C4)cc3)cc2N=C(N)C1 (centres unmarked) [Compound 1.6, 2-amino-8-(4-(3-(hydroxymethyl)piperidine-1-carbonyl)phenyl)-N,N-dipropyl-3H-benzo[b]azepine-4-carboxamide] | 50 to 500
